{"source": "patent US8420644B2", "about": "“Pharmaceutical composition intended for the prevention or for the treatment of cerebral oedemas” (Biocodex, priority 2005, dated 2013)", "key": {"[1]": {"tested_on": "cerebral edema induced triethyltin (TET) chloride", "settings": "administered during the intoxication, measured after 5 days (Linee et al., 1984); cited from earlier work"}, "[2]": {"assay_type": "in vivo, rat"}, "[3]": {"tested_on": "cerebral oedema induced by triethyltin (TET)", "settings": "rat, in vivo"}, "[4]": {"tested_on": "ambulatory activity disrupted by triethyltin (TET)", "settings": "for Ambulatory activities: no TET"}, "[5]": {"settings": "moclobemide 2×100 mg/kg/day + TET"}, "[6]": {"settings": "moclobemide 2 × 100 mg/kg/day + TET 3 mg/kg/day, day 4"}, "[7]": {"settings": "moclobemide 2 × 50 mg/kg/day + TET 3 mg/kg/day, day 4"}, "[8]": {"settings": "moclobemide 2 × 50 mg/kg/day + TET 3 mg/kg/day, day −3, before any treatment"}, "[9]": {"settings": "moclobemide 2 × 50 mg/kg/day, TET 0, day 4"}, "[10]": {"settings": "moclobemide 2 × 50 mg/kg/day, TET 0, day −3, before any treatment"}, "[11]": {"settings": "moclobemide 2 × 100 mg/kg/day + TET 3 mg/kg/day, day −3, before any treatment"}}, "note": "Read-outs that look alike come from different tables or passages of the source."}
{"compound": "(−)eburnamonine", "values": [{"measurement": "Activity in the preventive protocol of intoxication with tin", "setting": "[1]", "value": "active"}]}
{"compound": "dihydroergotoxin", "values": [{"measurement": "Activity in the preventive protocol of intoxication with tin", "setting": "[1]", "value": "active"}]}
{"compound": "CC[C@]12CCCN3CCc4c(n(c5ccccc45)[C@@](O)(C(=O)OC)C1)[C@@H]32", "note": "[vincamine]", "values": [{"measurement": "Activity in the preventive protocol of intoxication with tin", "setting": "[1]", "value": "active"}]}
{"compound": "moclobemide", "values": [{"measurement": "Body weight (grammes ± esm)", "setting": "[2]; moclobemide 2 × 50 mg/kg/day + TET 3 mg/kg/day, day 0", "value": "245 ± 3", "unit": "grammes"}, {"measurement": "Body weight (grammes ± esm)", "setting": "[2]; moclobemide 2 × 50 mg/kg/day + TET 3 mg/kg/day, day 1", "value": "246 ± 3", "unit": "grammes"}, {"measurement": "Body weight (grammes ± esm)", "setting": "[2]; moclobemide 2 × 50 mg/kg/day + TET 3 mg/kg/day, day 2", "value": "249 ± 3", "unit": "grammes"}, {"measurement": "Body weight (grammes ± esm)", "setting": "[2]; moclobemide 2 × 50 mg/kg/day + TET 3 mg/kg/day, day 3", "value": "253 ± 4", "unit": "grammes"}, {"measurement": "Body weight (grammes ± esm)", "setting": "[2]; moclobemide 2 × 50 mg/kg/day + TET 3 mg/kg/day, day −3", "value": "216 ± 3", "unit": "grammes"}, {"measurement": "Drop in weight between day 3 and day 4 induced by the TET", "setting": "[2]; [5]", "value": "prevents the drop in weight induced by the TET"}, {"measurement": "Body weight (grammes ± esm)", "setting": "[2]; moclobemide 2 × 100 mg/kg/day + TET 3 mg/kg/day, day 0", "value": "243 ± 4", "unit": "grammes"}, {"measurement": "Body weight (grammes ± esm)", "setting": "[2]; moclobemide 2 × 100 mg/kg/day + TET 3 mg/kg/day, day 2", "value": "244 ± 4", "unit": "grammes"}, {"measurement": "Body weight (grammes ± esm)", "setting": "[2]; moclobemide 2 × 100 mg/kg/day + TET 3 mg/kg/day, day 3", "value": "244 ± 4", "unit": "grammes"}, {"measurement": "Body weight (grammes ± esm)", "setting": "[2]; [6]", "value": "241 ± 5", "unit": "grammes"}, {"measurement": "Body weight (grammes ± esm)", "setting": "[2]; moclobemide 2 × 100 mg/kg/day + TET 3 mg/kg/day, day −3", "value": "203 ± 5", "unit": "grammes"}, {"measurement": "Variation in percentage", "setting": "[3]; 50 mg/kg/day", "value": "−0.01", "unit": "%"}, {"measurement": "Variation in percentage", "setting": "[3]; 100 mg/kg/day", "value": "−0.14", "unit": "%"}, {"measurement": "Effect of TET on the ambulatory activities", "setting": "[4]; moclobemide 2×50 mg/kg/day + TET", "value": "does not suppress the effect of TET"}, {"measurement": "Horizontal ambulatory activity (means ± esm)", "setting": "[4]; [7]", "value": "474 ± 70", "unit": "arbitrary unit"}, {"measurement": "Total ambulatory activity (means ± esm)", "setting": "[4]; [7]", "value": "844 ± 88", "unit": "arbitrary unit"}, {"measurement": "Horizontal ambulatory activity (means ± esm)", "setting": "[4]; [8]", "value": "2319 ± 248", "unit": "arbitrary unit"}, {"measurement": "Total ambulatory activity (means ± esm)", "setting": "[4]; [8]", "value": "3001 ± 314", "unit": "arbitrary unit"}, {"measurement": "Vertical ambulatory activity (means ± esm)", "setting": "[4]; [8]", "value": "279 ± 37", "unit": "arbitrary unit"}, {"measurement": "Ambulatory activities", "setting": "[4]; moclobemide 2×50 mg/kg/day for 5 days", "value": "does not lead to any significant effect on the ambulatory activities"}, {"measurement": "Horizontal ambulatory activity (means ± esm)", "setting": "[4]; [9]", "value": "1483 ± 163", "unit": "arbitrary unit"}, {"measurement": "Total ambulatory activity (means ± esm)", "setting": "[4]; [9]", "value": "2000 ± 224", "unit": "arbitrary unit"}, {"measurement": "Horizontal ambulatory activity (means ± esm)", "setting": "[4]; [10]", "value": "2754 ± 415", "unit": "arbitrary unit"}, {"measurement": "Total ambulatory activity (means ± esm)", "setting": "[4]; [10]", "value": "3840 ± 323", "unit": "arbitrary unit"}, {"measurement": "Effect of TET on the ambulatory activities", "setting": "[4]; [5]", "value": "does not suppress the effect of TET"}, {"measurement": "Horizontal ambulatory activity (means ± esm)", "setting": "[4]; [6]", "value": "497 ± 139", "unit": "arbitrary unit"}, {"measurement": "Horizontal ambulatory activity (means ± esm)", "setting": "[4]; [11]", "value": "2549 ± 221", "unit": "arbitrary unit"}, {"measurement": "Total ambulatory activity (means ± esm)", "setting": "[4]; [11]", "value": "3332 ± 235", "unit": "arbitrary unit"}, {"measurement": "Vertical ambulatory activity (means ± esm)", "setting": "[4]; [11]", "value": "279 ± 27", "unit": "arbitrary unit"}, {"measurement": "Ambulatory activities", "setting": "[4]; moclobemide 2×100 mg/kg/day, day 4", "value": "significantly decreases the ambulatory activities at day 4"}]}
